Calls of active or inactive are those of the source. No cut-off for these calls is given here.

Drawing on ChEMBL document CHEMBL3286231, “Synthesis and biological effects of new hybrid compounds composed of benzylguanidines and the alkylating group of busulfan on neuroblastoma cells” (Bioorg Med Chem Lett, 2014), this text covers Activity for 4 molecules.

The test system of test [1] is SK-N-SH. In words: Antiproliferative activity against human SK-N-SH cells after 72 hrs by MTT assay. It counts as functional, cell-based.
The subject of test [2] is SIMA. In words: Antiproliferative activity against human SiMa cells after 72 hrs by MTT assay. Format: functional, cell-based. A general note: Tetrazolium dyes change colour on reduction, which living cells bring about.
Test [3] concerns Kelly. In words: Antiproliferative activity against human Kelly cells after 72 hrs by MTT assay. Format: functional, cell-based.
The test system of test [4] is LS. In words: Antiproliferative activity against human LS cells after 72 hrs by MTT assay. It counts as functional, cell-based.
Test [5] relates to LS. In words: (§1) Increase in glycolysis in human LS cells assessed as conversion of glucose to lactate at 100 uM after 12 hrs relative to untreated control. It counts as functional.
Test [6] relates to SIMA. In words: Increase in glycolysis in human SiMa cells assessed as conversion of glucose to lactate at 100 uM after 12 hrs relative to untreated control. Format: functional.
Test [7] has as its system Kelly. In words: (§2) Increase in glycolysis in human Kelly cells assessed as conversion of glucose to lactate at 100 uM after 12 hrs relative to untreated control. It counts as functional.
For test [8], the system named is Kelly. In words: Antiproliferative activity against human Kelly cells at 10 to 100 uM after 72 hrs by MTT assay. It counts as functional, cell-based.
The subject of test [9] is LS. In words: Antiproliferative activity against human LS cells at 10 to 100 uM after 72 hrs by MTT assay. Format: functional, cell-based.
For test [10], the system named is SIMA. Kind of test: Antiproliferative activity against human SiMa cells at 10 to 100 uM after 72 hrs by MTT assay. It counts as functional, cell-based.
Test [11] deals with SK-N-SH. Kind of test: Antiproliferative activity against human SK-N-SH cells at 10 to 100 uM after 72 hrs by MTT assay. It counts as functional, cell-based.
A short description of test [12]: as §1. It counts as functional.
Test [13] in a line: as §2. Format: functional.

Consider `CS(=O)(=O)OCCCCOc1ccc(CNC(=N)N)cc1`, for which the Activity result with SK-N-SH [1], in the test on SIMA [2], in the test on Kelly [3] and in the test with LS [4] was “Dose-dependent effect” each time. Further, the result with LS [5], with SIMA [6] and in the test on Kelly [7] was Active.

In the case of `CS(=O)(=O)OCCCCOS(C)(=O)=O`, the outcome in the test with Kelly [8], in the test on LS [9], in the test on SIMA [10] and with SK-N-SH [11] was Active. Further, the outcome with LS [5], with SIMA [6] and in the test with Kelly [7] was inactive.

With `CS(=O)(=O)OCCCCOc1cccc(CNC(=N)N)c1`, the Activity result in the test on SK-N-SH [1], in the test on SIMA [2], in the test with Kelly [3] and in the test with LS [4] was “Dose-dependent effect” each time. The result with LS [5], with SIMA [6] and in the test with Kelly [7] was Active.

Regarding `N=C(N)NCc1cccc(I)c1` [IOBENGUANE], the result in the test on Kelly [8], in the test on LS [9], with SIMA [10] and in the test with SK-N-SH [11] was Active. For the same molecule, the results for the Activity (in [12]; in the test with SIMA [6]; in test [13]) were 81%, 98% and 74%, respectively.
